Test results from PMC8341399, “A STING-based fluorescent polarization assay for monitoring activities of cyclic dinucleotide metabolizing enzymes” (RSC Chemical Biology, 2020).
Read-outs that look alike come from different tables or passages of the source.

Assays:
hSTING [1] = target: T1, hSTING (Homo sapiens, UniProt Q86WV6); test: hSTING titration of fluorescein-labeled cyclic dinucleotide probes by fluorescence polarization; assay type: binding; settings: 50 nM probe, 1× PBS, 5 min room temperature, n = 3; read-out: Kd (dissociation constant, probe-hSTING)
T1 construct: SUMO; His; made in house; host or cells: E. coli Rosetta 2(pLysS)
T1 sequence (Q86WV6 155-341 limits assumed): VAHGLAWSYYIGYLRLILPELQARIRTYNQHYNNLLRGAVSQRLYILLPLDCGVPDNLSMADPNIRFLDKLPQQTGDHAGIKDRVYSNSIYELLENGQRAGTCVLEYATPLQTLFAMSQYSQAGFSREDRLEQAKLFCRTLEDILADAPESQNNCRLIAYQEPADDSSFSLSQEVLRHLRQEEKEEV

hSTING [2] = target: T1, hSTING; settings: cited from earlier work; for Kd: natural cyclic dinucleotides, read-out: Kd (binding constant for hSTING)
hSTING [3] = target: T1, hSTING; test: Probe displacement assay: F-c-di-GMP displaced from hSTING by unlabeled cyclic dinucleotides (FP); assay type: binding; settings: 50 nM F-c-di-GMP, 10 μM hSTING; read-out: apparent half maximal inhibitory concentration (displacement of F-c-di-GMP)
hENPP1 [4] = tested on: T2, hENPP1; test: ENPP1 cGAMP hydrolysis tracking, FP assay detection; assay type: biochemical, human; settings: ENPP1 9.16 nM, 50 μM cGAMP
T2 construct: purchased R&D Systems

hENPP1 [5] = tested on: T2, hENPP1; test: ENPP1 cGAMP hydrolysis tracking, HPLC analysis; assay type: biochemical, human; settings: ENPP1 9.16 nM, 50 μM cGAMP
[6] = ENPP1 hydrolysis products of cGAMP, stated without reference

2′-O-(6-[fluoresceinyl]aminohexylcarbamoyl)-cyclic diadenosine monophosphate [F-c-di-AMP]
Kd (hSTING [1]): 29.8 ± 6.3 µM

2′-O-(6-[fluoresceinyl]aminohexylcarbamoyl)-cyclic diguanosine monophosphate [F-c-di-GMP]
Kd (hSTING [1]): 3.45 ± 0.48 µM

Nc1ncnc2c1ncn2[C@@H]1O[C@H](COP(=O)(O)O)[C@@H](O)[C@H]1O [AMP]
hSTING binding (hSTING [2]; [6]): do not bind

Nc1nc2c(ncn2[C@@H]2O[C@H](COP(=O)(O)O)[C@@H](O)[C@H]2O)c(=O)[nH]1 [GMP]
hSTING binding (hSTING [2]; [6]): do not bind

Nc1nc2c(ncn2[C@@H]2O[C@H](CO)[C@@H](O)[C@H]2OP(=O)(O)OC[C@H]2O[C@@H](n3cnc4c(N)ncnc43)[C@H](O)[C@@H]2OP(=O)(O)O)c(=O)[nH]1 [Gp[2′–5′]Ap[3′]]
hSTING binding (hSTING [2]; poxin product of cGAMP): does not bind

Nc1ncnc2c1ncn2[C@@H]1O[C@@H]2COP(=O)(O)O[C@H]3[C@@H](O)[C@H](n4cnc5c(N)ncnc54)O[C@@H]3COP(=O)(O)O[C@H]2[C@H]1O [c-di-AMP]
IC50 (hSTING [3]): 7.35 ± 0.86 µM | Kd (hSTING [2]): 1.38 µM

Nc1nc2c(ncn2[C@@H]2O[C@@H]3COP(=O)(O)O[C@H]4[C@@H](O)[C@H](n5cnc6c(=O)[nH]c(N)nc65)O[C@@H]4COP(=O)(O)O[C@H]3[C@H]2O)c(=O)[nH]1 [c-di-GMP]
IC50 (hSTING [3]): 7.41 ± 0.49 µM | Kd (hSTING [2]): 1.21 µM

Nc1nc2c(ncn2[C@@H]2O[C@@H]3COP(=O)(O)O[C@H]4[C@@H](O)[C@H](n5cnc6c(N)ncnc65)O[C@@H]4COP(=O)(O)O[C@@H]2[C@@H]3O)c(=O)[nH]1 [cGAMP, 2′3-cGAMP]
cGAMP percent cleavage FP Assay (hENPP1 [4]; 0 min): 0% | cGAMP percent cleavage FP Assay (hENPP1 [4]; 10 min): 49% | cGAMP percent cleavage FP Assay (hENPP1 [4]; 20 min): 77% | cGAMP percent cleavage FP Assay (hENPP1 [4]; 30 min): 98% | cGAMP percent cleavage FP Assay (hENPP1 [4]; 40 min): 95% | cGAMP percent cleavage FP Assay (hENPP1 [4]; 50 min (assumed 100% cleavage)): 100% | cGAMP percent cleavage HPLC (hENPP1 [5]; 0 min): 0% | cGAMP percent cleavage HPLC (hENPP1 [5]; 10 min): 44% | cGAMP percent cleavage HPLC (hENPP1 [5]; 20 min): 56% | cGAMP percent cleavage HPLC (hENPP1 [5]; 40 min): 76% | cGAMP percent cleavage HPLC (hENPP1 [5]; 50 min): 85%
